Data taken from ChEMBL document CHEMBL2331181, “Synthesis and in vitro cytotoxic activity evaluation of novel heterocycle bridged carbothioamide type isosteviol derivatives as antitumor agents” (Bioorg Med Chem Lett, 2013).

Columns and labels:
Assay type in all cases: functional, cell-based
[1] = system: HeLa; assay: Cytotoxicity against human HeLa cells after 48 hrs by MTT assay
[2] = system: Raji; assay: Cytotoxicity against human Raji cells after 48 hrs by MTT assay
[3] = system: A549; assay: Cytotoxicity against human A549 cells after 48 hrs by MTT assay; conditions: A549, 48 h
[4] = system: SGC-7901; assay: Cytotoxicity against human SGC7901 cells after 48 hrs by MTT assay; conditions: SGC-7901, 48 h

Row | SMILES | IC50 [1] | IC50 [2] | IC50 [3] | IC50 [4]
1 | CCOC(=O)[C@]1(C)CCC[C@@]2(C)[C@@H]3CC[C@@]4(C)C[C@]3(CC[C@@H]21)c1cn(C(=S)Nc2cccc(C)c2)nc14 | > 50 µM | 14.2 µM | 31.9 µM | 15.3 µM
2 | CCOC(=O)[C@]1(C)CCC[C@@]2(C)[C@@H]3CC[C@@]4(C)C[C@]3(CC[C@@H]21)c1cn(C(=S)Nc2ccc(C)cc2)nc14 | 40.5 µM | 12.5 µM | > 50 µM | 14.7 µM
3 | CCOC(=O)[C@]1(C)CCC[C@@]2(C)[C@@H]3CC[C@@]4(C)C[C@]3(CC[C@@H]21)c1cn(C(=S)Nc2ccccc2OC)nc14 | > 50 µM | 10.1 µM | > 50 µM | > 50 µM
4 | CCOC(=O)[C@]1(C)CCC[C@@]2(C)[C@@H]3CC[C@@]4(C)C[C@]3(CC[C@@H]21)c1cn(C(=S)Nc2cccc(OC)c2)nc14 | > 50 µM | 15.1 µM | 23.3 µM | 12.5 µM
5 | CCOC(=O)[C@]1(C)CCC[C@@]2(C)[C@@H]3CC[C@@]4(C)C[C@]3(CC[C@@H]21)c1cn(C(=S)Nc2ccc(OC)cc2)nc14 | 13.9 µM | 6.51 µM | 17.7 µM | 9.65 µM
6 | CCOC(=O)[C@]1(C)CCC[C@@]2(C)[C@@H]3CC[C@@]4(C)C[C@]3(CC[C@@H]21)c1cn(C(=S)Nc2ccccc2[N+](=O)[O-])nc14 | 36.9 µM | 19.6 µM | 38.3 µM | 16.4 µM
7 | CCOC(=O)[C@]1(C)CCC[C@@]2(C)[C@@H]3CC[C@@]4(C)C[C@]3(CC[C@@H]21)c1cn(C(=S)Nc2cccc([N+](=O)[O-])c2)nc14 | > 50 µM | 16.9 µM | > 50 µM | 16 µM
8 | CCOC(=O)[C@]1(C)CCC[C@@]2(C)[C@@H]3CC[C@@]4(C)C[C@]3(CC[C@@H]21)c1cn(C(=S)Nc2ccc([N+](=O)[O-])cc2)nc14 | 36.2 µM | 17.9 µM | 35.3 µM | 34.2 µM
9 | CCOC(=O)[C@]1(C)CCC[C@@]2(C)[C@@H]3CC[C@@]4(C)C[C@]3(CC[C@@H]21)c1cn(C(=S)Nc2c(C)cccc2C)nc14 | 49 µM | 12.1 µM | > 50 µM | 14.8 µM
10 | CCOC(=O)[C@]1(C)CCC[C@@]2(C)[C@@H]3CC[C@@]4(C)C[C@]3(CC[C@@H]21)c1cn(C(=S)Nc2ccc(Cl)cc2Cl)nc14 | > 50 µM | 24.5 µM | > 50 µM | 20.1 µM
11 | CCOC(=O)[C@]1(C)CCC[C@@]2(C)[C@@H]3CC[C@@]4(C)C[C@]3(CC[C@@H]21)[C@@H]1CON(C(=S)Nc2ccc(F)cc2)[C@@H]14 | > 50 µM | > 50 µM | > 50 µM | > 50 µM
12 | CCOC(=O)[C@]1(C)CCC[C@@]2(C)[C@@H]3CC[C@@]4(C)C[C@]3(CC[C@@H]21)[C@@H]1CON(C(=S)Nc2ccccc2Cl)[C@@H]14 | > 50 µM | 35.6 µM | > 50 µM | 43.6 µM
13 | CCOC(=O)[C@]1(C)CCC[C@@]2(C)[C@@H]3CC[C@@]4(C)C[C@]3(CC[C@@H]21)[C@@H]1CON(C(=S)Nc2cccc(Cl)c2)[C@@H]14 | > 50 µM | > 50 µM | > 50 µM | > 50 µM
14 | CCOC(=O)[C@]1(C)CCC[C@@]2(C)[C@@H]3CC[C@@]4(C)C[C@]3(CC[C@@H]21)[C@@H]1CON(C(=S)Nc2ccc(Cl)cc2)[C@@H]14 | > 50 µM | > 50 µM | > 50 µM | > 50 µM
15 | CCOC(=O)[C@]1(C)CCC[C@@]2(C)[C@@H]3CC[C@@]4(C)C[C@]3(CC[C@@H]21)[C@@H]1CON(C(=S)Nc2ccccc2Br)[C@@H]14 | > 50 µM | > 50 µM | > 50 µM | > 50 µM
16 | CCOC(=O)[C@]1(C)CCC[C@@]2(C)[C@@H]3CC[C@@]4(C)C[C@]3(CC[C@@H]21)[C@@H]1CON(C(=S)Nc2cccc(Br)c2)[C@@H]14 | > 50 µM | > 50 µM | > 50 µM | 36.4 µM
17 | CCOC(=O)[C@]1(C)CCC[C@@]2(C)[C@@H]3CC[C@@]4(C)C[C@]3(CC[C@@H]21)[C@@H]1CON(C(=S)Nc2ccc(Br)cc2)[C@@H]14 | > 50 µM | > 50 µM | > 50 µM | > 50 µM
18 | CCOC(=O)[C@]1(C)CCC[C@@]2(C)[C@@H]3CC[C@@]4(C)C[C@]3(CC[C@@H]21)[C@@H]1CON(C(=S)Nc2ccccc2C)[C@@H]14 | > 50 µM | 24 µM | > 50 µM | 38.3 µM
19 | CCOC(=O)[C@]1(C)CCC[C@@]2(C)[C@@H]3CC[C@@]4(C)C[C@]3(CC[C@@H]21)[C@@H]1CON(C(=S)Nc2cccc(C)c2)[C@@H]14 | > 50 µM | 43.2 µM | > 50 µM | 34.1 µM
20 | CCOC(=O)[C@]1(C)CCC[C@@]2(C)[C@@H]3CC[C@@]4(C)C[C@]3(CC[C@@H]21)[C@@H]1CON(C(=S)Nc2ccc(C)cc2)[C@@H]14 | > 50 µM | 27.6 µM | 45.8 µM | 37.2 µM

Row | SMILES | IC50 [1] | IC50 [2] | IC50 [3] | IC50 [4]
21 | CCOC(=O)[C@]1(C)CCC[C@@]2(C)[C@@H]3CC[C@@]4(C)C[C@]3(CC[C@@H]21)[C@@H]1CON(C(=S)Nc2ccccc2OC)[C@@H]14 | > 50 µM | > 50 µM | > 50 µM | > 50 µM
22 | CCOC(=O)[C@]1(C)CCC[C@@]2(C)[C@@H]3CC[C@@]4(C)C[C@]3(CC[C@@H]21)[C@@H]1CON(C(=S)Nc2cccc(OC)c2)[C@@H]14 | > 50 µM | > 50 µM | > 50 µM | > 50 µM
23 | CCOC(=O)[C@]1(C)CCC[C@@]2(C)[C@@H]3CC[C@@]4(C)C[C@]3(CC[C@@H]21)[C@@H]1CON(C(=S)Nc2ccc(OC)cc2)[C@@H]14 | > 50 µM | 37.4 µM | > 50 µM | > 50 µM
24 | CCOC(=O)[C@]1(C)CCC[C@@]2(C)[C@@H]3CC[C@@]4(C)C[C@]3(CC[C@@H]21)[C@@H]1CON(C(=S)Nc2ccccc2[N+](=O)[O-])[C@@H]14 | > 50 µM | 35.4 µM | > 50 µM | > 50 µM
25 | CCOC(=O)[C@]1(C)CCC[C@@]2(C)[C@@H]3CC[C@@]4(C)C[C@]3(CC[C@@H]21)[C@@H]1CON(C(=S)Nc2cccc([N+](=O)[O-])c2)[C@@H]14 | > 50 µM | > 50 µM | > 50 µM | > 50 µM
26 | CCOC(=O)[C@]1(C)CCC[C@@]2(C)[C@@H]3CC[C@@]4(C)C[C@]3(CC[C@@H]21)[C@@H]1CON(C(=S)Nc2ccc([N+](=O)[O-])cc2)[C@@H]14 | > 50 µM | 23.5 µM | > 50 µM | 49.8 µM
27 | CCOC(=O)[C@]1(C)CCC[C@@]2(C)[C@@H]3CC[C@@]4(C)C[C@]3(CC[C@@H]21)[C@@H]1CON(C(=S)Nc2c(C)cccc2C)[C@@H]14 | > 50 µM | 19.7 µM | 41.6 µM | 27.4 µM
28 | CCOC(=O)[C@]1(C)CCC[C@@]2(C)[C@@H]3CC[C@@]4(C)C[C@]3(CC[C@@H]21)[C@@H]1CON(C(=S)Nc2ccc(Cl)cc2Cl)[C@@H]14 | > 50 µM | 21.9 µM | 43.2 µM | 25.1 µM
29 | CCOC(=O)[C@]1(C)CCC[C@@]2(C)[C@@H]3CC[C@@]4(C)C[C@]3(CC[C@@H]21)c1cn(C(=S)Nc2ccccc2)nc14 | 27.1 µM | 18.9 µM | 17.6 µM | 15.7 µM
30 | CCOC(=O)[C@]1(C)CCC[C@@]2(C)[C@@H]3CC[C@@]4(C)C[C@]3(CC[C@@H]21)c1cn(C(=S)Nc2ccccc2F)nc14 | 47.5 µM | 11.1 µM | 18.8 µM | 20.7 µM
31 | CCOC(=O)[C@]1(C)CCC[C@@]2(C)[C@@H]3CC[C@@]4(C)C[C@]3(CC[C@@H]21)c1cn(C(=S)Nc2cccc(F)c2)nc14 | > 50 µM | 23.7 µM | 33.8 µM | 19.5 µM
32 | CCOC(=O)[C@]1(C)CCC[C@@]2(C)[C@@H]3CC[C@@]4(C)C[C@]3(CC[C@@H]21)c1cn(C(=S)Nc2ccc(F)cc2)nc14 | 13.3 µM | 17.7 µM | 33.5 µM | 18.4 µM
33 | CCOC(=O)[C@]1(C)CCC[C@@]2(C)[C@@H]3CC[C@@]4(C)C[C@]3(CC[C@@H]21)c1cn(C(=S)Nc2ccccc2Cl)nc14 | > 50 µM | 21.1 µM | 26.6 µM | 26.2 µM
34 | CCOC(=O)[C@]1(C)CCC[C@@]2(C)[C@@H]3CC[C@@]4(C)C[C@]3(CC[C@@H]21)c1cn(C(=S)Nc2cccc(Cl)c2)nc14 | > 50 µM | 16 µM | 39.1 µM | 16.9 µM
35 | CCOC(=O)[C@]1(C)CCC[C@@]2(C)[C@@H]3CC[C@@]4(C)C[C@]3(CC[C@@H]21)c1cn(C(=S)Nc2ccc(Cl)cc2)nc14 | 39 µM | 13 µM | 20 µM | 21.7 µM
36 | CCOC(=O)[C@]1(C)CCC[C@@]2(C)[C@@H]3CC[C@@]4(C)C[C@]3(CC[C@@H]21)c1cn(C(=S)Nc2ccccc2Br)nc14 | 43.4 µM | 19.6 µM | 38.1 µM | 17.2 µM
37 | CCOC(=O)[C@]1(C)CCC[C@@]2(C)[C@@H]3CC[C@@]4(C)C[C@]3(CC[C@@H]21)c1cn(C(=S)Nc2cccc(Br)c2)nc14 | > 50 µM | 15.8 µM | 24.8 µM | 19.6 µM
38 | CCOC(=O)[C@]1(C)CCC[C@@]2(C)[C@@H]3CC[C@@]4(C)C[C@]3(CC[C@@H]21)c1cn(C(=S)Nc2ccc(Br)cc2)nc14 | > 50 µM | 13.9 µM | 24.5 µM | 7.06 µM
39 | CCOC(=O)[C@]1(C)CCC[C@@]2(C)[C@@H]3CC[C@@]4(C)C[C@]3(CC[C@@H]21)c1cn(C(=S)Nc2ccccc2C)nc14 | > 50 µM | 15.2 µM | 32.1 µM | 38.1 µM
